Assays:
[1] = test system: methionine N^α -acetyltransferase (M-N^α -AT); test: Relative activity of M-N^α -AT for N^α -acetylation of synthetic peptides; format: biochemical, Saccharomyces cerevisiae; design: tested at 50 µM; settings: Table 7, influence of the penultimate amino terminal residue
Method: (§1) N^α -acetylt[…] was determined as previously described [Lee et al., J. Biol. Chem. 263:14948-14955 (1988)]. Aliquots of the lysate or chromatographic fractions were added to 1.5 ml Eppendorf tubes containing a reaction mixture of 50 mM HEPES, pH 7.4, 150 mM KCl, 1 mM DTT, 25 μM [^3 H] acetyl coenzyme A (0.5 μCi) and 50 μM synthetic peptide with an adjusted final volume of 100 μl. The assay mixture was incubated at 30° C. for 30 min. The reaction was stopped by adding 17 μl of 0.5M acetic acid and chilled in an ice bath. The reaction samples were filtered through SP membrane discs (Cuno) (previously pre-swollen in 0.5M acetic acid), and then washed three times with 1 ml of 0.5M acetic acid on a Millipore 1225 sampling manifold. The partially dried membranes were placed in scintillation cocktail and counted with a Beckman LS 3801 scintillation counter. One unit of activity was defined as the amount of enzyme able to transfer 1 pmol of [^3 H] acetyl group from [^3 H] acetyl coenzyme A to synthetic peptide per min under standard enzyme assay conditions defined above.
(§2) In order to compare the relative specificity and activity of the methionine N^α -acetylt[…] (M-N^α -AT) of the present invention with the specificity and activity of the AAA1 N^α -acetyltransferase (N^α -AT) of Lee, F.-J. S., et al., J. Bacteriol. 171, (1989), U.S. Patent Application of John A. Smith, and Fang-Jen S. Lee, filed Oct. 25, 1989, entitled "ISOLATION OF STRAINS OF SAC[…] ALTERED N^α -ACETYLT[…]" (which references have been incorporated herein by reference) synthetic peptides were prepared. These peptides were assessed for their ability to serve as substrates for the two enzymes. In Table 6, the effect of the amino terminal amino acid on activity is investigated; in Table 7, the effect of the penultimate amino terminal amino acid on activity is investigated.

[2] = target: T1, AAA1 N^α -acetyltransferase (N^α -AT) (Saccharomyces cerevisiae, UniProt P07347+P12945); test: Relative activity of N^α -AT for N^α -acetylation of synthetic peptides; format: biochemical; settings: Table 7, influence of the penultimate amino terminal residue
T1 sequence (P12945 2-854 limits assumed): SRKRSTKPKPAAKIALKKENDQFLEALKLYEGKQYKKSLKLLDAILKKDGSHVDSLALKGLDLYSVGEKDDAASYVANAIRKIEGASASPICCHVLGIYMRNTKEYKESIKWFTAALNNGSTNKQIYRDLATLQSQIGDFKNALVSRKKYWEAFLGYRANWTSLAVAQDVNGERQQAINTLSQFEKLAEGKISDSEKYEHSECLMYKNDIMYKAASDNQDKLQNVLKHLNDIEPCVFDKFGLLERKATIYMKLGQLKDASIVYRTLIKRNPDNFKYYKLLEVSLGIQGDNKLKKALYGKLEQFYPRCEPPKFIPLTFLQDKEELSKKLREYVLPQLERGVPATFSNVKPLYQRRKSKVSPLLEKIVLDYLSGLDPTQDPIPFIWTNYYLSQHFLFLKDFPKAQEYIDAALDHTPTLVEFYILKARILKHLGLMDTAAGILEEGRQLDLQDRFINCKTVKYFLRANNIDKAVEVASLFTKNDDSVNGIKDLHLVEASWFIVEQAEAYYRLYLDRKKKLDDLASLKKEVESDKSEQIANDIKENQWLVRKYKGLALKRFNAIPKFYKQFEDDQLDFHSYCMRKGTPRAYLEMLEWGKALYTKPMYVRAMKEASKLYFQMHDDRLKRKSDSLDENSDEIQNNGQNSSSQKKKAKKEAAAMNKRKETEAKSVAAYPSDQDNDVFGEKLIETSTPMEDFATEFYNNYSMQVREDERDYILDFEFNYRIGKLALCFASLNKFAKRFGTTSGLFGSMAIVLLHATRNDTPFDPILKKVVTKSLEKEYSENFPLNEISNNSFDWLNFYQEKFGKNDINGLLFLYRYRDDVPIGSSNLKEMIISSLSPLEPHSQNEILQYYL
T1 sequence (P07347 1-238): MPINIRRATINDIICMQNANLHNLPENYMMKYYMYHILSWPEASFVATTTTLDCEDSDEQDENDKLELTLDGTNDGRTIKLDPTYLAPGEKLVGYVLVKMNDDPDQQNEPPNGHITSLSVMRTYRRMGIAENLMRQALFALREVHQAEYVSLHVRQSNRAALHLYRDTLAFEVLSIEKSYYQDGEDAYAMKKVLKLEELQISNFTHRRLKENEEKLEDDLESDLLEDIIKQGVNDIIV
Method: as §1, §2

## SHPETQKGVIFYESHGKLEYKDIP (SHPETQKGVIFYESHGKLEYKDIP)
[1]
  Activity (%) (mean activity ± S.D.) M-N^a -AT: 0%
[2]
  Activity (%) (mean activity ± S.D.) N^a -AT: 125 ± 6%

## SNPETQKGVIFYESHGKLEYKDIP (SNPETQKGVIFYESHGKLEYKDIP)
[1]
  Activity (%) (mean activity ± S.D.) M-N^a -AT: 0%
[2]
  Activity (%) (mean activity ± S.D.) N^a -AT: 116 ± 5%

## SLPETQKGVIFYESHGKLEYKDIP (SLPETQKGVIFYESHGKLEYKDIP)
[1]
  Activity (%) (mean activity ± S.D.) M-N^a -AT: 0%
[2]
  Activity (%) (mean activity ± S.D.) N^a -AT: 126 ± 5%

## SGPETQKGVIFYESHGKLEYKDIP (SGPETQKGVIFYESHGKLEYKDIP)
[1]
  Activity (%) (mean activity ± S.D.) M-N^a -AT: 0%
[2]
  Activity (%) (mean activity ± S.D.) N^a -AT: 84 ± 5%

## SPPETQKGVIFYESHGKLEYKDIP (SPPETQKGVIFYESHGKLEYKDIP)
[1]
  Activity (%) (mean activity ± S.D.) M-N^a -AT: 0%
[2]
  Activity (%) (mean activity ± S.D.) N^a -AT: 0%

## SWPETQKGVIFYESHGKLEYKDIP (SWPETQKGVIFYESHGKLEYKDIP)
[1]
  Activity (%) (mean activity ± S.D.) M-N^a -AT: 0%
[2]
  Activity (%) (mean activity ± S.D.) N^a -AT: 91 ± 5%

## SAPETQKGVIFYESHGKLEYKDIP (SAPETQKGVIFYESHGKLEYKDIP)
[1]
  Activity (%) (mean activity ± S.D.) M-N^a -AT: 0%
[2]
  Activity (%) (mean activity ± S.D.) N^a -AT: 168 ± 8%

## SVPETQKGVIFYESHGKLEYKDIP (SVPETQKGVIFYESHGKLEYKDIP)
[1]
  Activity (%) (mean activity ± S.D.) M-N^a -AT: 0%
[2]
  Activity (%) (mean activity ± S.D.) N^a -AT: 123 ± 7%

## SKPETQKGVIFYESHGKLEYKDIP (SKPETQKGVIFYESHGKLEYKDIP)
[1]
  Activity (%) (mean activity ± S.D.) M-N^a -AT: 0%
[2]
  Activity (%) (mean activity ± S.D.) N^a -AT: 151 ± 6%

## SQPETQKGVIFYESHGKLEYKDIP (SQPETQKGVIFYESHGKLEYKDIP)
[1]
  Activity (%) (mean activity ± S.D.) M-N^a -AT: 0%
[2]
  Activity (%) (mean activity ± S.D.) N^a -AT: 134 ± 7%

## SEPETQKGVIFYESHGKLEYKDIP (SEPETQKGVIFYESHGKLEYKDIP)
[1]
  Activity (%) (mean activity ± S.D.) M-N^a -AT: 0%
[2]
  Activity (%) (mean activity ± S.D.) N^a -AT: 121 ± 6%

## STPETQKGVIFYESHGKLEYKDIP (STPETQKGVIFYESHGKLEYKDIP)
[1]
  Activity (%) (mean activity ± S.D.) M-N^a -AT: 0%
[2]
  Activity (%) (mean activity ± S.D.) N^a -AT: 144 ± 8%

## SSPETQKGVIFYESHGKLEYKDIP (SSPETQKGVIFYESHGKLEYKDIP)
[1]
  Activity (%) (mean activity ± S.D.) M-N^a -AT: 0%
[2]
  Activity (%) (mean activity ± S.D.) N^a -AT: 140 ± 6%

## SYPETQKGVIFYESHGKLEYKDIP (SYPETQKGVIFYESHGKLEYKDIP)
[1]
  Activity (%) (mean activity ± S.D.) M-N^a -AT: 0%
[2]
  Activity (%) (mean activity ± S.D.) N^a -AT: 169 ± 8%

## SRPETQKGVIFYESHGKLEYKDIP (SRPETQKGVIFYESHGKLEYKDIP)
[1]
  Activity (%) (mean activity ± S.D.) M-N^a -AT: 0%
[2]
  Activity (%) (mean activity ± S.D.) N^a -AT: 102 ± 5%

## SCPETQKGVIFYESHGKLEYKDIP (SCPETQKGVIFYESHGKLEYKDIP)
[1]
  Activity (%) (mean activity ± S.D.) M-N^a -AT: 0%
[2]
  Activity (%) (mean activity ± S.D.) N^a -AT: 136 ± 7%
